US8076452B2, “Streptavidin-binding peptide” (priority 2002, dated 2011)
Like-named read-outs stand apart in the source and are kept apart here.

Columns and labels:
streptavidin [1] = biological target: T1, streptavidin (Streptomyces avidinii, UniProt P22629); test: Binding constants by surface plasmon resonance, BIAcore NTA chip, optimized measuring method; conditions: peptide N-terminal of FABP, C-terminal Gly2-His8, 1,100 RU immobilized
Text: The information supplied by the substitution analysis was verified by determining the binding constants of different peptides by surface plasmon resonance spectroscopy using a BIAcore device. The measurements were made with the NTA sensor chip of the company BIAcore and by means of the fatty acid-binding protein from bovine hearts (FABP). The FABP served for the immobilization and presentation of the peptide. Further, it was intended to thus simulate the conditions occurring in an affinity chromatography, since the peptide is to be used in the future as an affinity peptide for the purification of proteins. In contrast to the first measurements, where the peptides to be verified replaced the four N terminal amino acids of the FABP, the arrangement of the peptides was this time also N terminal, but they were not part of the FABP. The His-tag necessary for the immobilization was also modified. It was located same as for the first measurements at the C terminus of the FABP, was however extended from six to eight histidines and further spaced by a linker consisting of two glycines from the FABP. Thereby, the immobilization of the ligands could distinctly be improved, and thus the drift of the base line resulting from the washing-off of the ligand could be minimized. For every measurement, an identical amount of the respective FABPs was immobilized, what corresponded to a rise of the base line by 1,100 resonance units (RU). As a reference was used the FABP with the His-tag, but without N terminal binding peptide.
The binding constants obtained with the optimized measuring method were the following: […]

streptavidin [2] = biological target: T1, streptavidin; test: Dissociation constant measurement, BiacoreX, NTA sensor chip (first measurements); type: binding; conditions: for Kd: FABP with N-terminal 15-aa peptide, C-terminal His6 on NTA chip
Text: Using standard methods for this technology, the FAB protein (fatty acid binding protein) (FABP) from bovine hearts was expressed in vitro in a cell-free protein biosynthesis by means of a coupled transcription/translation system. The expressed FAB protein had at the N terminus an additional streptavidin-binding peptide composed of 15 amino acids with different amino acid sequences as fusion partners.
Two binding peptides contain in their amino acid sequence the HPQ motif (motif 1 and 2) described in the prior art, and two of them contain the streptavidin-binding peptide according to SEQ ID NOS: 1-6 according to the invention (motif 3 and 4). In addition, the expressed proteins were provided at the C terminus with a “His-tag” consisting of 6 histidines. The proteins were purified by means of affinity chromatography via Ni2+IDA-agarose using standard methods. It can be seen that with equal length, binding peptides of a sequence according to the invention have a substantially lower dissociation constant than a binding peptide with HPQ motif.
The measurements of the dissociation constant were performed with a BiacoreX system and the sensor chip NTA of the company Biacore. The proteins generated during the expression described in Example 1 were investigated, i.e. FAB proteins, which had at the N terminus a peptide consisting of 15 amino acids as fusion partners and at the C terminus 6 histidines, which were needed for the immobilization on the sensor chip. The binding affinity of the proteins generated during the expression to streptavidin described in Example 1 was measured in the Biacore device according to manufacturer's instructions. The protein to be investigated is on the sensor chip, and a streptavidin solution having a defined concentration is sprayed in. The interaction (binding) between the two molecules is measured by the device and quantified as so-called resonance units (RU). For the measurement, the buffers specified by the manufacturer were used.

streptavidin [3] = biological target: T1, streptavidin; conditions: prior art; read-out: dissociation constant Kd; cited from earlier work
streptavidin [4] = biological target: T1, streptavidin; test: Substitution analysis by spot synthesis on cellulose membrane, peroxidase-labeled streptavidin, luminescence; type: binding; conditions: peptide spots on cellulose membrane
Text: The binding peptide (FAx 3) with the sequence DVEAWLDERVPLVET [SEQ ID NO: 16] was subjected to a substitution analysis, and it was intended thereby to identify a possible minimum motif (=shortened peptide) and examine the effect of individual amino acid exchanges on the binding specificity. In a substitution analysis, peptides are synthesized by means of spot methods (Frank, R. 1992) on a cellulose membrane serving as a solid phase. Every position of the peptide comprising 15 amino acids was systematically replaced by the other 19 L amino acids.
The substitution analysis was incubated with a peroxidase-labeled streptavidin and developed with a luminescence substrate. Thereby it was possible to find out, how far the peptide can be shortened and which amino acids are “conserved” and thus not or only very poorly exchangeable. […] The substitution analysis also indicated positions, where the exchange of the original amino acid by another one could result in an improvement of the streptavidin binding.

StrepTactin-Sepharose = StrepTactin-Sepharose (Streptomyces avidinii, UniProt P22629, E68V/S69T/V71R); test: Purification of the FABP fusion protein via StrepTactin-Sepharose affinity column
Sequence of StrepTactin-Sepharose (P22629 38-163 E68V/S69T/V71R): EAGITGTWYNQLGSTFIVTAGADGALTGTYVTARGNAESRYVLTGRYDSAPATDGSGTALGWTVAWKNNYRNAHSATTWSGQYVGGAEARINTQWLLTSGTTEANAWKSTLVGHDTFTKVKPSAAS
Text: (§1) Using standard methods, the FAB protein having at the N terminus an additional peptide consisting of 15 amino acids with the amino acid sequence DVEAWLDERVPLVET [SEQ ID NO: 16] (motif 3) as fusion partners, is expressed in vitro in a cell-free protein biosynthesis by means of a coupled transcription/translation system. For purification of the overexpressed defined protein, the streptavidin was coupled to a solid phase. As a solid phase was used a Sepharose. The expressed FAB protein was then purified using standard methods via a column comprising streptavidin-Sepharose or StrepTactin-Sepharose. For the purification the following buffers were used: washing buffer (100 mM Tris-HCl (pH 8.0), 150 mM NaCl, 1 mM EDTA).
(§2) For the elution of streptavidin, the washing buffer contained 2 mM biotin, and for the elution of StrepTactin, the washing buffer contained 2.5 mM desthiobiotin.
(§3) The percentage distribution of the used defined protein on the various fractions of the affinity chromatography can be taken from Table 3. In Table 3, D represents the application of sample/passage, W washing fraction, and E elution fraction.

streptavidin-Sepharose = streptavidin-Sepharose (Streptomyces avidinii, UniProt P22629); test: Purification of the FABP fusion protein via streptavidin-Sepharose affinity column
Sequence of streptavidin-Sepharose (P22629 25-183): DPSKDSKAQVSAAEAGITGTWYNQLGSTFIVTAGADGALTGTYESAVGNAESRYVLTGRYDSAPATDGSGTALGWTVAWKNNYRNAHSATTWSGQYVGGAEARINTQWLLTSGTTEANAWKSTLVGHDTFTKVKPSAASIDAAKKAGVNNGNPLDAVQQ
Text: as §1, §2, §3

T1 sequence (P22629 25-183, species assumed): as the sequence (P22629 25-183) above

DVEAWFDER
Kd (streptavidin [1]): not measurable

DVEAWIADPAVHFTT [motif 4, D V E A W I A D P A V H F T T]
Kd (streptavidin [2]): 200 nM | resonance units (RU) (streptavidin [2]; Streptavidin conc. 30 nM): 68 RU | resonance units (RU) (streptavidin [2]; Streptavidin conc. 60 nM): 171 RU | resonance units (RU) (streptavidin [2]; Streptavidin conc. 125 nM): 280 RU | resonance units (RU) (streptavidin [2]; Streptavidin conc. 250 nM): 384 RU | resonance units (RU) (streptavidin [2]; Streptavidin conc. 500 nM): 478 RU | resonance units (RU) (streptavidin [2]; Streptavidin conc. 1 μM): 560 RU | resonance units (RU) (streptavidin [2]; Streptavidin conc. 2 μM): 644 RU

WSHPQFEK [Strep-tag II]
Kd (streptavidin [3]): 18000 to 72000 nM

DNYDADLAWDTHPQD [motif 2, D N Y D A D L A W D T H P Q D, reference compound]
Kd (streptavidin [2]): 70000 nM | resonance units (RU) (streptavidin [2]; Streptavidin conc. 3 μM): 64 RU | resonance units (RU) (streptavidin [2]; Streptavidin conc. 6 μM): 98 RU | resonance units (RU) (streptavidin [2]; Streptavidin conc. 15 μM): 201 RU | resonance units (RU) (streptavidin [2]; Streptavidin conc. 30 μM): 337 RU | resonance units (RU) (streptavidin [2]; Streptavidin conc. 60 μM): 536 RU

MDEKTTGWRGGIIVVEGLAGELEQLRARLEHHPQGQREP [SBP-tag]
Kd (streptavidin [3]): 2.5 nM

DVEAWL
streptavidin binding (streptavidin [4]): sufficient streptavidin binding

DVEAWRDER
Kd (streptavidin [1]): not measurable

AWRHPQFGG [Strep-tag I]
Kd (streptavidin [3]): 10000 to 37000 nM

DVEAWLDAR
Kd (streptavidin [1]; read-out: Kd): 160 ± 30 nM

DVEAWLDER
streptavidin binding (streptavidin [4]): clearly better streptavidin binding | Kd (streptavidin [1]; read-out: Kd): 240 ± 40 nM

DVDAWLDER
Kd (streptavidin [1]; read-out: Kd): 940 ± 140 nM

DVEAWLGER
Kd (streptavidin [1]; read-out: Kd): 17 ± 4 nM

DVGAWLDER
Kd (streptavidin [1]; read-out: Kd): 570 ± 90 nM

DLYDIDRNWVGHPQG [motif 1, D L Y D I D R N W V G H P Q G, reference compound]
Kd (streptavidin [2]): 8000 nM | resonance units (RU) (streptavidin [2]; Streptavidin conc. 500 nM): 62 RU | resonance units (RU) (streptavidin [2]; Streptavidin conc. 1 μM): 123 RU | resonance units (RU) (streptavidin [2]; Streptavidin conc. 2 μM): 233 RU | resonance units (RU) (streptavidin [2]; Streptavidin conc. 4 μM): 407 RU | resonance units (RU) (streptavidin [2]; Streptavidin conc. 8 μM): 621 RU | resonance units (RU) (streptavidin [2]; Streptavidin conc. 16 μM): 779 RU | resonance units (RU) (streptavidin [2]; Streptavidin conc. 32 μM): 955 RU

DVEAWLGERVPLVET
Kd (streptavidin [1]; read-out: Kd): 4.2 ± 0.7 nM

DVEAWLDERVPLVET [motif 3, D V E A W L D E R V P L V E T]
applied protein recovered for the eluate (StrepTactin-Sepharose; StrepTactin-Sepharose): 71% | applied protein recovered from the column (StrepTactin-Sepharose; StrepTactin-Sepharose): 84% | percentage distribution of the protein, fraction D (StrepTactin-Sepharose; application of sample/passage): 3.0% | percentage distribution of the protein, fraction E1 (StrepTactin-Sepharose; elution fraction 1, 2.5 mM desthiobiotin): 0.9% | percentage distribution of the protein, fraction E2 (StrepTactin-Sepharose; elution fraction 2, 2.5 mM desthiobiotin): 45.9% | percentage distribution of the protein, fraction E3 (StrepTactin-Sepharose; elution fraction 3, 2.5 mM desthiobiotin): 23.2% | percentage distribution of the protein, fraction E4 (StrepTactin-Sepharose; elution fraction 4, 2.5 mM desthiobiotin): 1.0% | percentage distribution of the protein, fraction E5 (StrepTactin-Sepharose; elution fraction 5, 2.5 mM desthiobiotin): 0.3% | percentage distribution of the protein, Tot. (StrepTactin-Sepharose; sum of all fractions): 84.4% | percentage distribution of the protein, fraction W1 (StrepTactin-Sepharose; washing fraction 1): 7.4% | percentage distribution of the protein, fraction W2 (StrepTactin-Sepharose; washing fraction 2): 1.8% | percentage distribution of the protein, fraction W3 (StrepTactin-Sepharose; washing fraction 3): 0.9% | Kd (streptavidin [1]; read-out: Kd): 3.6 ± 0.6 nM | percentage distribution of the protein, fraction D (streptavidin-Sepharose; application of sample/passage): 3.5% | percentage distribution of the protein, fraction E1 (streptavidin-Sepharose; elution fraction 1, 2 mM biotin): 0.4% | percentage distribution of the protein, fraction E2 (streptavidin-Sepharose; elution fraction 2, 2 mM biotin): 76.9% | percentage distribution of the protein, fraction E3 (streptavidin-Sepharose; elution fraction 3, 2 mM biotin): 0.7% | applied protein recovered for the eluate (streptavidin-Sepharose; streptavidin-Sepharose): 78% | applied protein recovered from the column (streptavidin-Sepharose; streptavidin-Sepharose): 90% | percentage distribution of the protein, Tot. (streptavidin-Sepharose; sum of all fractions): 89.6% | percentage distribution of the protein, fraction W1 (streptavidin-Sepharose; washing fraction 1): 6.8% | percentage distribution of the protein, fraction W2 (streptavidin-Sepharose; washing fraction 2): 1.0% | percentage distribution of the protein, fraction W3 (streptavidin-Sepharose; washing fraction 3): 0.3% | Kd (streptavidin [2]): 84 nM | resonance units (RU) (streptavidin [2]; Streptavidin conc. 15 nM): 98 RU | resonance units (RU) (streptavidin [2]; Streptavidin conc. 30 nM): 242 RU | resonance units (RU) (streptavidin [2]; Streptavidin conc. 60 nM): 461 RU | resonance units (RU) (streptavidin [2]; Streptavidin conc. 125 nM): 613 RU | resonance units (RU) (streptavidin [2]; Streptavidin conc. 250 nM): 704 RU | resonance units (RU) (streptavidin [2]; Streptavidin conc. 500 nM): 786 RU | resonance units (RU) (streptavidin [2]; Streptavidin conc. 2 μM): 946 RU | resonance units (RU) (streptavidin [2]; Streptavidin conc. 4 μM): 983 RU

DVEAWLGAR
Kd (streptavidin [1]; read-out: Kd): 17 ± 4 nM

DVEAWLGARVPLVET
Kd (streptavidin [1]; read-out: Kd): 4.1 ± 0.6 nM
